In PMC6995525, “Structure of the PUB Domain from Ubiquitin Regulatory X Domain Protein 1 (UBXD1) and Its Interaction with the p97 AAA+ ATPase” (Biomolecules, 2019):
Each block holds one substance with its values, some of them ahead of it.

Experiments:
[1] = molecular target: T1, UBXD1-PUB (Homo sapiens, UniProt Q9BZV1); assay: 15N-HSQC NMR titration of 15N-labeled UBXD1-PUB with p97 peptides; format: binding; details: 50 mM NaKPi pH 6.5, 25 °C; for binding in 15N-HSQC NMR titration: phosphorylated p97-C13-pY805, 270 µM protein, up to 1.25 mM peptide, 1.2 mM or 1.1 mM (Figure S1)
T1 construct: N-terminal hexahistidine-tagged UBXD1-PUB (150–264) was cloned into a pET28a expression vector; hexahistidine (His6) (N); made in house
T1 sequence (Q9BZV1 150-264): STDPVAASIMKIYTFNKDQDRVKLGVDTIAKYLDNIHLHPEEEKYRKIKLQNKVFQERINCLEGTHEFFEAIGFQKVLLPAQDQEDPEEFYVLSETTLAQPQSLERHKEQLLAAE
Method: The NMR samples contained 200–800 µM of ^15N,^13C- or ^15N-labeled protein in 50 mM NaKPi pH 6.5, 90%/10% (v/v) H2O/D2O. ^13C(aliphatic)-COSY and TOCSY experiments were measured in the same buffer with 100% D2O. All spectra were recorded at 25 °C on a 700 MHz Bruker Ultrashield NMR spectrometer equipped with a 5 mm TCI (^1H/^13C/^15N) triple resonance cryoprobe head. Spectra were processed with Topspin 3.5 (Bruker) and analyzed with CARA [42].
To 362 μM ^15N-labeled UBXD1-PUB, the p97-C10 or p97-C13 peptides were added stepwise to a final concentration of 1.1 mM. For the titration of the phosphorylated p97-C13-pY^805 peptide to the PUB domain, the protein concentration was 270 µM, and the peptide was titrated to a final concentration of 1.2 mM. After each addition, the ^1H,^15N-HSQC spectrum was recorded.
The chemical shift perturbation Δδtotal was calculated from the ^1H- and ^15N-shifts according to Equation (1) using the spectra with no peptide and the highest concentration of peptide, where ΔδN and ΔδH represent the chemical shift perturbation value of the amide nitrogen and proton, respectively:(1) Δδtotal=(ΔδH)^2+(0.154⋅ΔδN)^2.

[2] = molecular target: T2, UBXD1 PUB domain (Homo sapiens, UniProt Q9BZV1); assay: p97-PIM peptide binding to UBXD1 PUB domain (summary); details: isolated p97-PIM peptide
T2 construct: N-terminal hexahistidine-tagged UBXD1-PUB (150–264) was cloned into a pET28a expression vector; hexahistidine (His6) (N); made in house
T2 sequence (Q9BZV1 150-264): T1 sequence (Q9BZV1 150-264)
Method: Fluorescence anisotropy measurements (excitation: 495 nm; emission 518 nm) were carried out on a JASCO FP-8300 fluorescence spectrometer in 50 mM NaKPi, pH 6.5 at 25 °C, titrating PUB constructs to 5,6-FAM labeled p97-C10 peptide (100 nM). All titrations were performed in triplicate. Binding curves of the averaged data were fitted with GraphPad Prism 5.0 (GraphPad) using the quadratic binding equation for a one-site specific binding model:(3) r=r0+rmax⋅(F+x+KD)−(F+x+KD)^2−4⋅x⋅F/2⋅F, with r = anisotropy, r0 = anisotropy without protein, rmax = maximum anisotropy, F = fluorescent probe (labeled peptide or protein) concentration, x = titrant protein concentration, and KD = dissociation constant.
ITC measurements were performed in triplicate with a MicroCal iTC2000 (Malvern Pananalytical). UBXD1-PUB (100 µM) was titrated with 1 mM of p97-C10 peptide in 50 mM NaKPi buffer (pH 6.5) at 25 °C in 40 steps with a volume of 0.5 µL for the first 9 steps and 1.0 µL for the remaining ones.

[3] = molecular target: HOIP PUB domain; details: ref [25],[27],[34]; cited from earlier work
Source text: (§1) UBXD1, PNGase, and HOIP PUB domains bind the p97-PIM peptide with KDs in the low µM range and a 1:1 stoichiometry (Table 2, Figure 4, Figure 5 and Figure S2, and [25, 27, 34]). The KD of HOIP for the OTULIN- and SPATA2-PIMs, however, is 50 times lower and lies in the nM range, which maybe reflects that these complexes either operate at lower concentrations in the cell or a have a lesser need to exchange their binding partners. p97, on the other hand, might need to swap cofactors more readily either within one pathway or to switch between different pathways.

[4] = molecular target: PNGase PUB domain; details: ref [25],[27],[34]; cited from earlier work
Source text: as §1

chemical shift perturbations (CSPs) Δδtotal ([1]; 362 μM 15N-UBXD1-PUB, peptide to 1.1 mM, resonances between second and fourth α-helix): > 0.2 ppm
Substance: SVYTEDNDDDLYG [p97-C13]

KD of PUB domain for p97-PIM peptide [2]: low µM range
Substance: p97-PIM peptide: PUB interacting motif (PIM) in the p97 C-terminus (TEDNDDDLYG)
KD of PUB domain for p97-PIM peptide [3]: low µM range
KD of PUB domain for p97-PIM peptide [4]: low µM range

binding in 15N-HSQC NMR titration [1]: no
binding in 15N-HSQC NMR titration ([1]; listed as p97-C13 peptide carrying a phosphorylated pY805): did not show any binding
Substance: SVYTEDNDDDLpYG [phosphorylated p97-C13]
